According to the NIST ThermoML archive (doi:10.1021/acs.jced.8b00595):

Details: 101.3 kPa, Liquid; for viscosity: Concentric cylinders viscometry; for mass density: Vibrating tube method

COC(C)(C)C [2-methoxy-2-methylpropane]
Details	mass density [kg/m3]	viscosity [mPa·s]
273.15 K	761.3	0.495
288.15 K	745.9	0.421
298.15 K	735	0.381
308.15 K	724.6	0.328
